Like-named read-outs stand apart in the source and are kept apart here.
How the values were obtained:
[1] = tested on: A. baumannii 14B00100 (Acinetobacter sp., BCRC number 14B0100)
Summary of the method: (§1)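 Broth microdilution per CLSI in Müller-Hinton broth and modified LYM broth (pH 7.4; variants with 300–50 mM NaCl, 2.5–0.5 mM MgCl2, or pH 6.5–4.5). Inoculum 5 × 10^5 CFU/mL; peptides at final 50 to 0.78 µg/mL, twofold series. MIC reported; three independent repeats.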

[2] = tested on: A. baumannii 14B0091 (Acinetobacter sp., BCRC number 14B0091)
Summary of the method: as §1

[3] = tested on: Escherichia coli (ATCC 25922)
Summary of the method: as §1

S. aureus ATCC 25923 = tested on: S. aureus ATCC 25923
Summary of the method: as §1

S. aureus ATCC 33591 = tested on: S. aureus ATCC 33591
Summary of the method: as §1

S. aureus ATCC 6538 = tested on: S. aureus ATCC 6538
Summary of the method: as §1

Gram-negative bacteria = experiment: Geometric mean MIC and therapeutic index, Gram-negative bacteria; type: cell-based; conditions: Gram-negative bacteria
Summary of the method: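 CLSI broth microdilution in Müller-Hinton broth and modified LYM broth (pH 7.4 base; NaCl, MgCl2 and pH varied), 5 × 10^5 CFU/mL inoculum, peptides 0.78–50 µg/mL final. TI = HC10 for human red blood cells divided by geometric mean MIC; three independent repeats.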

[4] = LYM broth, 0 mM NaCl, 16 h, 37 °C
[5] = LYM broth, 50 mM NaCl, 16 h, 37 °C
[6] = LYM broth, 100 mM NaCl, 16 h, 37 °C
[7] = LYM broth, 200 mM (NaCl), 16 h, 37 °C
[8] = LYM broth, 300 mM (NaCl), 16 h, 37 °C
[9] = MH broth, 5 × 10^5 CFU/mL, 16 h, 37 °C, repeated three times

Substance: Ac-KWRKWLKWLAKKK-NH2 [Peptide W5K01]
- MIC [1, 4]: 1.56 µg/mL
- MIC ([1]; LYM broth, 0.5 mM MgCl2): 1.56 µg/mL
- MIC ([1]; LYM broth, 1.5 mM MgCl2): 1.56 µg/mL
- MIC ([1]; LYM broth, 2.5 mM MgCl2): 3.13 µg/mL
- MIC [1, 5]: 1.56 µg/mL
- MIC [1, 6]: 3.13 µg/mL
- MIC [1, 7]: 3.13 µg/mL
- MIC [1, 8]: 6.25 µg/mL
- MIC ([1]; LYM broth, pH 4.5): 1.56 µg/mL
- MIC ([1]; LYM broth, pH 5.5): 1.56 µg/mL
- MIC ([1]; LYM broth, pH 6.5): 1.56 µg/mL
- MIC [1, 9]: 6.25 µg/mL
- MIC [2, 4]: 1.56 µg/mL
- MIC ([2]; LYM broth, 0.5 mM MgCl2): 1.56 µg/mL
- MIC ([2]; LYM broth, 1.5 mM MgCl2): 1.56 µg/mL
- MIC ([2]; LYM broth, 2.5 mM MgCl2): 3.13 µg/mL
- MIC [2, 5]: 3.13 µg/mL
- MIC [2, 6]: 3.13 µg/mL
- MIC [2, 7]: 3.13 µg/mL
- MIC [2, 8]: 12.5 µg/mL
- MIC ([2]; LYM broth, pH 4.5): 1.56 µg/mL
- MIC ([2]; LYM broth, pH 5.5): 1.56 µg/mL
- MIC ([2]; LYM broth, pH 6.5): 1.56 µg/mL
- MIC [2, 9]: 6.25 µg/mL
- MIC [3, 4]: 3.13 µg/mL
- MIC ([3]; LYM broth, 0.5 mM MgCl2): 6.25 µg/mL
- MIC ([3]; LYM broth, 1.5 mM MgCl2): 6.25 µg/mL
- MIC ([3]; LYM broth, 2.5 mM MgCl2): 12.5 µg/mL
- MIC [3, 5]: 6.25 µg/mL
- MIC [3, 6]: 25 µg/mL
- MIC [3, 7]: >50 µg/mL
- MIC [3, 8]: >50 µg/mL
- MIC ([3]; LYM broth, pH 4.5): 3.13 µg/mL
- MIC ([3]; LYM broth, pH 5.5): 3.13 µg/mL
- MIC ([3]; LYM broth, pH 6.5): 3.13 µg/mL
- MIC [3, 9]: 12.5 µg/mL
- MIC (S. aureus ATCC 25923; [4]): 3.13 µg/mL
- MIC (S. aureus ATCC 25923; LYM broth, 0.5 mM MgCl2): 3.13 µg/mL
- MIC (S. aureus ATCC 25923; LYM broth, 1.5 mM MgCl2): 6.25 µg/mL
- MIC (S. aureus ATCC 25923; LYM broth, 2.5 mM MgCl2): 6.25 µg/mL
- MIC (S. aureus ATCC 25923; [5]): 6.25 µg/mL
- MIC (S. aureus ATCC 25923; [6]): 12.5 µg/mL
- MIC (S. aureus ATCC 25923; [7]): 50 µg/mL
- MIC (S. aureus ATCC 25923; [8]): >50 µg/mL
- MIC (S. aureus ATCC 25923; LYM broth, pH 4.5): 3.13 µg/mL
- MIC (S. aureus ATCC 25923; LYM broth, pH 5.5): 3.13 µg/mL
- MIC (S. aureus ATCC 25923; LYM broth, pH 6.5): 1.56 µg/mL
- MIC (S. aureus ATCC 25923; [9]): 12.5 µg/mL
- MIC (S. aureus ATCC 33591; [4]): 6.25 µg/mL
- MIC (S. aureus ATCC 33591; LYM broth, 0.5 mM MgCl2): 6.25 µg/mL
- MIC (S. aureus ATCC 33591; LYM broth, 1.5 mM MgCl2): 6.25 µg/mL
- MIC (S. aureus ATCC 33591; LYM broth, 2.5 mM MgCl2): 6.25 µg/mL
- MIC (S. aureus ATCC 33591; [5]): 12.5 µg/mL
- MIC (S. aureus ATCC 33591; [6]): 12.5 µg/mL
- MIC (S. aureus ATCC 33591; [7]): 25 µg/mL
- MIC (S. aureus ATCC 33591; [8]): 50 µg/mL
- MIC (S. aureus ATCC 33591; LYM broth, pH 4.5): 6.25 µg/mL
- MIC (S. aureus ATCC 33591; LYM broth, pH 5.5): 6.25 µg/mL
- MIC (S. aureus ATCC 33591; LYM broth, pH 6.5): 3.13 µg/mL
- MIC (S. aureus ATCC 33591; [9]): 50 µg/mL
- MIC (S. aureus ATCC 6538; [4]): 3.13 µg/mL
- MIC (S. aureus ATCC 6538; LYM broth, 0.5 mM MgCl2): 1.56 µg/mL
- MIC (S. aureus ATCC 6538; LYM broth, 1.5 mM MgCl2): 1.56 µg/mL
- MIC (S. aureus ATCC 6538; LYM broth, 2.5 mM MgCl2): 3.13 µg/mL
- MIC (S. aureus ATCC 6538; [5]): 6.25 µg/mL
- MIC (S. aureus ATCC 6538; [6]): 12.5 µg/mL
- MIC (S. aureus ATCC 6538; [7]): 12.5 µg/mL
- MIC (S. aureus ATCC 6538; [8]): 25 µg/mL
- MIC (S. aureus ATCC 6538; LYM broth, pH 4.5): 3.13 µg/mL
- MIC (S. aureus ATCC 6538; LYM broth, pH 5.5): 1.56 µg/mL
- MIC (S. aureus ATCC 6538; LYM broth, pH 6.5): 1.56 µg/mL
- MIC (S. aureus ATCC 6538; [9]): 12.5 µg/mL
- GM G− (geometric mean of the MIC values) (Gram-negative bacteria; MH broth, MIC >50 µg/mL counted as 100 µg/mL): 8.2 µg/mL
- Therapeutic Index (TI) G− (Gram-negative bacteria; HC10/GM): 8.6

Reference: PMC12649549, “Sequence Permutation Generated Lysine and Tryptophan-Rich Antimicrobial Peptides with Enhanced Therapeutic Index” (Antibiotics, 2025)
